Like-named read-outs stand apart in the source and are kept apart here. Peptide text beside a SMILES is read from it. * marks the point of attachment. Biotin = O=C1N[C@H]2[C@H](CS[C@H]2CCCCC(=O)*)N1
Tests used:
Test in all cases: Apparent affinity (Kd) by titration of PL peptide in the G assay
Type in all cases: binding
[1] = target: T1, PDZ-domain polypeptide (GST/PDZ fusion protein) (Homo sapiens, UniProt O75970)
T1 construct: made in house; host or cells: E. coli (DH5alpha, BL21 or JM109)
Summary of the method: (§1)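 A fixed concentration of GST/PDZ fusion protein, 5 ug/ml by default, was mixed in solution with increasing labeled PL peptide (e.g. 0.1 uM-1 mM). Reaction times ranged from 10 minutes to 2 days at 4-37° C. Complexes were separated from free peptide and detected via the label as in the G assay, apparent affinity coming from the saturating concentration.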

[2] = target: T2, PDZ-domain polypeptide (GST/PDZ fusion protein) (Homo sapiens, UniProt Q02410)
T2 construct: made in house; host or cells: E. coli (DH5alpha, BL21 or JM109)
T2 sequence (Q02410 1-837): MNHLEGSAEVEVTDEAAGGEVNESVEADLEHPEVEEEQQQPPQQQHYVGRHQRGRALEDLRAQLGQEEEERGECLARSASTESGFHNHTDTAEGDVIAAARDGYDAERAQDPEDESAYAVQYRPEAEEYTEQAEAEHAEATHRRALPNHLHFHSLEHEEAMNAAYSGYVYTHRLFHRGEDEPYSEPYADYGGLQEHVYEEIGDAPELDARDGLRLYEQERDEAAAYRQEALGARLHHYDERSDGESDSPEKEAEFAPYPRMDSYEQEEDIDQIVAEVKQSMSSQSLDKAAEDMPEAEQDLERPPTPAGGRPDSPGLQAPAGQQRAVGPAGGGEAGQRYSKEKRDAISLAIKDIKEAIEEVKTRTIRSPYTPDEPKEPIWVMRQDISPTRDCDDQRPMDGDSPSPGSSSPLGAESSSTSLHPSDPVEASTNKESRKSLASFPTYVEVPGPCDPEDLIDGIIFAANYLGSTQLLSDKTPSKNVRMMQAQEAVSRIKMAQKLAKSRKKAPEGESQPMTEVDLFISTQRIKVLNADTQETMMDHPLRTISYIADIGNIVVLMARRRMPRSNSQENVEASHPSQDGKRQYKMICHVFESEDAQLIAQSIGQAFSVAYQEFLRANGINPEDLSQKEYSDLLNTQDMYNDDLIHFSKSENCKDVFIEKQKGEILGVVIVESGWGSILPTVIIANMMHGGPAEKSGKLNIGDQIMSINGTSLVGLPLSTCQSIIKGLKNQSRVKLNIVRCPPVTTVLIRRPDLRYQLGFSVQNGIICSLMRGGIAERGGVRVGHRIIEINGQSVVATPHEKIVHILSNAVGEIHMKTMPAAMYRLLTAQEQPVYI
Summary of the method: as §1

[3] = target: T3, PDZ-domain polypeptide (GST/PDZ fusion protein) (Homo sapiens, UniProt Q96JH8); settings: PDZ FLJ 10324, PDZ Domain 1
T3 construct: made in house; host or cells: E. coli (DH5alpha, BL21 or JM109)
T3 sequence (Q96JH8 1-1075): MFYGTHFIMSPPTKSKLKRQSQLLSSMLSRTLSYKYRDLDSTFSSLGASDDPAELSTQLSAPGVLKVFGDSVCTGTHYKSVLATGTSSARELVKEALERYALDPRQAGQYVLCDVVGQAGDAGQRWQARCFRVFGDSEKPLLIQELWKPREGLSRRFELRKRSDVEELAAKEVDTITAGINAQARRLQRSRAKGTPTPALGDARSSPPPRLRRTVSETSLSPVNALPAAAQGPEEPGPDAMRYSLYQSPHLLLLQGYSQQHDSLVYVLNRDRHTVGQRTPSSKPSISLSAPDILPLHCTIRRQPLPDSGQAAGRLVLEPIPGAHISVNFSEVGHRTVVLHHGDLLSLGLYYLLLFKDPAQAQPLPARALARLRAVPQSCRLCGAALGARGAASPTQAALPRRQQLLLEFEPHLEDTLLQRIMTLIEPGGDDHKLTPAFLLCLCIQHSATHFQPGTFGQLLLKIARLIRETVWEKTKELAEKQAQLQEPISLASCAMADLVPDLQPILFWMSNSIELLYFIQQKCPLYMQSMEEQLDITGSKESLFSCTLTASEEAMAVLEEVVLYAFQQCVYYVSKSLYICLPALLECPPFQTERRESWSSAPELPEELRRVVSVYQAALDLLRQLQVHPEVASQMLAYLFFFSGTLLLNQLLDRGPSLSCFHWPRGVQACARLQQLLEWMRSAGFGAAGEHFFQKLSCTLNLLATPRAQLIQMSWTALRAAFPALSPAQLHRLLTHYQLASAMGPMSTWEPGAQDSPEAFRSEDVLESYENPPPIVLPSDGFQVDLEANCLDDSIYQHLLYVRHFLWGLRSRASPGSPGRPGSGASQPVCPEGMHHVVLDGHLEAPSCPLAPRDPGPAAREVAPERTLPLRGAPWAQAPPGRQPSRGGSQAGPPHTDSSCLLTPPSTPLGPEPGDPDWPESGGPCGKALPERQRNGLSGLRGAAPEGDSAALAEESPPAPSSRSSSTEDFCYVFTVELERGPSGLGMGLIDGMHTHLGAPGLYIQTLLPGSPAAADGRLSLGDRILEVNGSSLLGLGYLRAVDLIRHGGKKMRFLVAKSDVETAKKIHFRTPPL
Summary of the method: as §1

[4] = PDZ MUPP-1, PDZ Domain 7, titration of the PL peptide, read-out: Peptide Optimal Conc (Kd, dissociation constant)
[5] = titration of the PL peptide, read-out: Peptide Optimal Conc (Kd, dissociation constant)

T1 sequence (O75970 whole entry, the tested form may be a part): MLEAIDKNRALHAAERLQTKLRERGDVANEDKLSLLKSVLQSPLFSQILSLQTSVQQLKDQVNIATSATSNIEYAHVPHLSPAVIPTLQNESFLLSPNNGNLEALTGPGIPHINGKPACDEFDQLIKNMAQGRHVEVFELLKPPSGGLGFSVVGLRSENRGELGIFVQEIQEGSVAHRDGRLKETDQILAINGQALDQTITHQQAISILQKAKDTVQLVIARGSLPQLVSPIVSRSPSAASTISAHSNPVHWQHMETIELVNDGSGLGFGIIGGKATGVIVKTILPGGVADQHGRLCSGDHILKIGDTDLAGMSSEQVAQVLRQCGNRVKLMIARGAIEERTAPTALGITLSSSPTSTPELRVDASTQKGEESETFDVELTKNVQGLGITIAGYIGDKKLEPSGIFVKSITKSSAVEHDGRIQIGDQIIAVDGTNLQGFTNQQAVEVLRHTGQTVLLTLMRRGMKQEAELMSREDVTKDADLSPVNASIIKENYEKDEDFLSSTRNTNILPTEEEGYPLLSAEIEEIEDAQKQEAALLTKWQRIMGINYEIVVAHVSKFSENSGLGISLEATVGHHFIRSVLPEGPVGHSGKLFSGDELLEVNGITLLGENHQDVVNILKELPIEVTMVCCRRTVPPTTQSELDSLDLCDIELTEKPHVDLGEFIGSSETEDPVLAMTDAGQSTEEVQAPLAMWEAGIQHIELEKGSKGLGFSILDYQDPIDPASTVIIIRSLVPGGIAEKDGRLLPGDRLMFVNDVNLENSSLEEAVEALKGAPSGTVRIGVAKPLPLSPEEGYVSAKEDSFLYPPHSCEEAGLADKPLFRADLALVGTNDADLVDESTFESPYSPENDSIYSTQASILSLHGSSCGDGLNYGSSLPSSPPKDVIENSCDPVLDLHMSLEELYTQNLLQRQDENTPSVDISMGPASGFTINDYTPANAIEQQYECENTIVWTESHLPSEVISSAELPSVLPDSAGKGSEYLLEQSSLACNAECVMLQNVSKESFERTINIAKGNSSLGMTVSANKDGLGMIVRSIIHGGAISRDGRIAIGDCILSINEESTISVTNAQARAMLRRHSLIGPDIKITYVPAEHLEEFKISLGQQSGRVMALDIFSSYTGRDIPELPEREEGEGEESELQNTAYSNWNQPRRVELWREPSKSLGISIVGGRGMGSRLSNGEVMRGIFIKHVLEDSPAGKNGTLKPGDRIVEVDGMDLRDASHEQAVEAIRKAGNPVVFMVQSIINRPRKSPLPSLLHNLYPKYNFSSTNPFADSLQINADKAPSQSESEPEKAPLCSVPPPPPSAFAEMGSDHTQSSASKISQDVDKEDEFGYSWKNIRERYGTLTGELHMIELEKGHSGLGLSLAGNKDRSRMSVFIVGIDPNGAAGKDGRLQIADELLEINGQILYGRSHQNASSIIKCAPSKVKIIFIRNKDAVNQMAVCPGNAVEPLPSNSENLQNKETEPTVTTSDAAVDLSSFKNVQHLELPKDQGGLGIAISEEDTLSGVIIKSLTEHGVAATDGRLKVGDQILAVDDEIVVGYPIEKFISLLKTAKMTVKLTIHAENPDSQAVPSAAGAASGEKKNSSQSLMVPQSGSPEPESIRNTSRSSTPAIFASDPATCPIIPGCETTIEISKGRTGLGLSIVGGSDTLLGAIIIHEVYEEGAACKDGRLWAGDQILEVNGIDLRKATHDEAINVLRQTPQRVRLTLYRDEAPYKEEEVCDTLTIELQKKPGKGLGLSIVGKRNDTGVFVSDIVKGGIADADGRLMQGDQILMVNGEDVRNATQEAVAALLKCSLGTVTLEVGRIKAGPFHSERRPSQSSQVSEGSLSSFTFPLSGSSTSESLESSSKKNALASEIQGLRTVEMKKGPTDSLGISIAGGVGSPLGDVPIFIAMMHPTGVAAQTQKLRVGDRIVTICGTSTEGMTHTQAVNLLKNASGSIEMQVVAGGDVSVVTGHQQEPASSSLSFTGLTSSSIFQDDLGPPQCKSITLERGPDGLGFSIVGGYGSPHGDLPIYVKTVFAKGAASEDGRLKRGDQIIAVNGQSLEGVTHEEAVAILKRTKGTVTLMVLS

CC[C@H](C)[C@H](NC(=O)[C@H](C)NC(=O)[C@H](CC(C)C)NC(=O)[C@H](Cc1c[nH]c2ccccc12)NC(=O)[C@H](Cc1c[nH]cn1)NC(=O)[C@H](CCC(N)=O)NC(=O)[C@H](CC(C)C)NC(=O)[C@H](CCC(N)=O)NC(=O)[C@H](Cc1ccccc1)NC(=O)[C@H](CCC(N)=O)NC(=O)[C@H](CCCNC(=N)N)NC(=O)[C@@H](NC(=O)[C@H](CC(=O)O)NC(=O)[C@H](CCCNC(=N)N)NC(=O)[C@H](CCC(N)=O)NC(=O)[C@H](C)NC(=O)[C@@H](NC(=O)[C@H](CC(C)C)NC(=O)[C@H](Cc1c[nH]cn1)NC(=O)[C@H](Cc1c[nH]cn1)NC(=O)CCCC[C@@H]1SC[C@@H]2NC(=O)N[C@@H]21)C(C)C)[C@@H](C)CC)C(=O)O [noradrenaline transporter] (Biotin-HHLVAQRDIRQFQLQHWLAI-OH; C-terminus assumed)
Kd ([1]; Peptide Optimal Conc (Kd by titration of the PL peptide), PDZ MUPP-1, PDZ Domain 3): 400 nM
Kd ([1]; Peptide Optimal Conc (Kd by titration of the PL peptide), PDZ MUPP-1, PDZ Domain 7): 800 nM
Kd ([1]; Peptide Optimal Conc (Kd by titration of the PL peptide), PDZ MUPP-1, PDZ Domain 9): 700 nM
Kd ([2]; Peptide Optimal Conc (Kd by titration of the PL peptide), PDZ Mint 1, PDZ Domain 1, 2): 500 nM
Kd ([3]; Peptide Optimal Conc (Kd by titration of the PL peptide)): 600 nM

CC[C@H](C)[C@H](NC(=O)[C@H](CC(=O)O)NC(=O)[C@H](CCC(=O)O)NC(=O)[C@H](CCCNC(=N)N)NC(=O)[C@@H](NC(=O)CCCC[C@@H]1SC[C@@H]2NC(=O)N[C@@H]21)[C@@H](C)O)C(=O)N[C@@H](Cc1ccc(O)cc1)C(=O)N[C@H](C(=O)N[C@@H](CC(N)=O)C(=O)N[C@@H](Cc1ccc(O)cc1)C(=O)N1CCC[C@H]1C(=O)N[C@H](C(=O)N[C@@H](Cc1ccccc1)C(=O)N[C@@H](CO)C(=O)N[C@@H](CCCNC(=N)N)C(=O)N[C@@H](CCCNC(=N)N)C(=O)N1CCC[C@H]1C(=O)N[C@@H](CCCCN)C(=O)N[C@H](C(=O)N[C@@H](CCCNC(=N)N)C(=O)N[C@H](C(=O)O)C(C)C)[C@@H](C)O)[C@@H](C)O)C(C)C [DNAM-1] (Biotin-TREDIYVNYPTFSRRPKTRV-OH; C-terminus assumed)
Kd ([1]; Peptide Optimal Conc (Kd by titration of the PL peptide), PDZ MUPP-1, PDZ Domain 10): 2500 nM

CC[C@H](C)[C@H](NC(=O)CNC(=O)[C@H](CO)NC(=O)[C@H](Cc1ccccc1)NC(=O)[C@@H](NC(=O)[C@H](CS)NC(=O)CNC(=O)CNC(=O)[C@H](C)NC(=O)[C@@H]1CCCN1C(=O)[C@@H](NC(=O)[C@@H]1CCCN1C(=O)CCCC[C@@H]1SC[C@@H]2NC(=O)N[C@@H]21)[C@@H](C)CC)[C@@H](C)O)C(=O)N[C@@H](Cc1ccccc1)C(=O)N1CCC[C@H]1C(=O)N[C@H](C(=O)N[C@@H](CC(C)C)C(=O)N[C@H](C(=O)N[C@@H](CO)C(=O)N1CCC[C@H]1C(=O)N[C@@H](CC(C)C)C(=O)O)[C@@H](C)O)[C@@H](C)O [KIA 1481] (Biotin-PIPAGGCTFSGIFPTLTSPL-OH; C-terminus assumed)
Kd ([2]; PDZ Mint 1, PDZ Domain 1, 2, read-out: Peptide Optimal Conc (non-zero value: Kd by titration of the PL peptide)): 800 nM

CC[C@H](C)[C@H](NC(=O)[C@H](CCCCN)NC(=O)[C@@H](NC(=O)[C@H](CO)NC(=O)[C@@H]1CCCN1C(=O)[C@H](Cc1ccccc1)NC(=O)[C@@H](NC(=O)[C@@H](NC(=O)[C@H](CCCNC(=N)N)NC(=O)[C@H](CCC(=O)O)NC(=O)[C@H](CC(C)C)NC(=O)[C@H](CC(C)C)NC(=O)[C@H](CC(C)C)NC(=O)[C@@H](NC(=O)CNC(=O)[C@@H](NC(=O)CCCC[C@@H]1SC[C@@H]2NC(=O)N[C@@H]21)C(C)C)[C@@H](C)O)C(C)C)[C@@H](C)CC)C(C)C)C(=O)N[C@@H](C)C(=O)N[C@H](C(=O)N[C@@H](CC(C)C)C(=O)N[C@H](C(=O)O)C(C)C)[C@@H](C)O [Adenovirus E4 Type9]
Kd ([1]; PDZ MUPP-1, PDZ Domain 11, Protein Optimal Conc 5, read-out: Peptide Optimal Conc (Kd by titration of the PL peptide)): 100 nM
Kd ([3]; Protein Optimal Conc 5, read-out: Peptide Optimal Conc (Kd by titration of the PL peptide)): 100 nM

CC[C@H](C)[C@H](NC(=O)[C@H](Cc1ccc(O)cc1)NC(=O)[C@H](CC(C)C)NC(=O)[C@H](CCC(N)=O)NC(=O)[C@H](Cc1c[nH]cn1)NC(=O)[C@H](CO)NC(=O)[C@H](C)NC(=O)[C@H](CC(C)C)NC(=O)[C@@H](NC(=O)[C@H](CC(=O)O)NC(=O)[C@H](CCSC)NC(=O)[C@H](Cc1ccccc1)NC(=O)[C@@H]1CCCN1C(=O)[C@H](CCCNC(=N)N)NC(=O)[C@@H](NC(=O)[C@H](CC(C)C)NC(=O)[C@H](CC(N)=O)NC(=O)[C@H](CC(=O)O)NC(=O)[C@@H](NC(=O)[C@H](CO)NC(=O)CCCC[C@@H]1SC[C@@H]2NC(=O)N[C@@H]21)[C@@H](C)O)C(C)C)[C@@H](C)O)C(=O)O [presenilin-2] (Biotin-STDNLVRPFMDTLASHQLYI-OH; C-terminus assumed)
Kd [1, 4]: 4000 nM
Kd ([2]; PDZ Mint 1, PDZ Domain 1, 2, titration of the PL peptide, read-out: Peptide Optimal Conc (Kd, dissociation constant)): 6000 nM
Kd [3, 5]: 1000 nM

CC(C)C[C@H](NC(=O)[C@H](Cc1c[nH]c2ccccc12)NC(=O)[C@H](Cc1c[nH]cn1)NC(=O)[C@H](CCCNC(=N)N)NC(=O)[C@H](CC(C)C)NC(=O)[C@@H](NC(=O)[C@H](Cc1ccccc1)NC(=O)[C@H](CCC(N)=O)NC(=O)[C@H](CCCNC(=N)N)NC(=O)[C@@H](NC(=O)[C@H](CCC(=O)O)NC(=O)CNC(=O)[C@H](CCCNC(=N)N)NC(=O)[C@H](CC(=O)O)NC(=O)[C@@H](NC(=O)[C@H](CC(C)C)NC(=O)[C@H](CCC(=O)O)NC(=O)[C@H](CCCNC(=N)N)NC(=O)CCCC[C@@H]1SC[C@@H]2NC(=O)N[C@@H]21)C(C)C)C(C)C)[C@@H](C)O)C(=O)N[C@@H](CCCCN)C(=O)N[C@H](C(=O)O)C(C)C [Dopamine transporter (Na+-dependent)] (Biotin-RELVDRGEVRQFTLRHWLKV-OH; C-terminus assumed)
Kd ([3]; read-out: Peptide Optimal Conc (Kd by titration of the PL peptide)): 300 nM

CC[C@H](C)[C@H](NC(=O)[C@H](Cc1ccc(O)cc1)NC(=O)[C@@H](NC(=O)[C@@H]1CCCN1C(=O)[C@H](CCC(N)=O)NC(=O)[C@H](CCC(=O)O)NC(=O)[C@H](CCC(N)=O)NC(=O)[C@H](C)NC(=O)[C@@H](NC(=O)[C@H](CC(C)C)NC(=O)[C@H](CC(C)C)NC(=O)[C@H](CCCNC(=N)N)NC(=O)[C@H](Cc1ccc(O)cc1)NC(=O)[C@H](CCSC)NC(=O)[C@H](C)NC(=O)[C@H](C)NC(=O)[C@@H]1CCCN1C(=O)[C@H](CCSC)NC(=O)[C@@H](NC(=O)[C@H](CCCCN)NC(=O)CCCC[C@@H]1SC[C@@H]2NC(=O)N[C@@H]21)[C@@H](C)O)[C@@H](C)O)C(C)C)C(=O)O [MINT-1] (Biotin-KTMPAAMYRLLTAQEQPVYI-OH; C-terminus assumed)
Kd [1, 4]: 1500 nM
Kd ([2]; PDZ Mint 1, PDZ Domain 1, titration of the PL peptide, read-out: Peptide Optimal Conc (Kd, dissociation constant)): 2000 nM
Kd [3, 5]: 1000 nM
